According to ChEMBL document CHEMBL1129040, “Inhibitors of acyl CoA:cholesterol acyltransferase” (J Med Chem, 1996):

Key:
[1] = test system: Cricetinae gen. sp.; test: In vivo activity to reduce liver cholesterol esters (hamster) at 50 mpk; assay type: functional, Cricetulus griseus
[2] = biological target: T1, Sterol O-acyltransferase 1 (Rattus norvegicus, UniProt O70536); test: In vitro inhibitory activity against acyl-coenzyme A:cholesterol acyltransferase 1 from rat hepatic microsomes.
T1 sequence (O70536 whole entry): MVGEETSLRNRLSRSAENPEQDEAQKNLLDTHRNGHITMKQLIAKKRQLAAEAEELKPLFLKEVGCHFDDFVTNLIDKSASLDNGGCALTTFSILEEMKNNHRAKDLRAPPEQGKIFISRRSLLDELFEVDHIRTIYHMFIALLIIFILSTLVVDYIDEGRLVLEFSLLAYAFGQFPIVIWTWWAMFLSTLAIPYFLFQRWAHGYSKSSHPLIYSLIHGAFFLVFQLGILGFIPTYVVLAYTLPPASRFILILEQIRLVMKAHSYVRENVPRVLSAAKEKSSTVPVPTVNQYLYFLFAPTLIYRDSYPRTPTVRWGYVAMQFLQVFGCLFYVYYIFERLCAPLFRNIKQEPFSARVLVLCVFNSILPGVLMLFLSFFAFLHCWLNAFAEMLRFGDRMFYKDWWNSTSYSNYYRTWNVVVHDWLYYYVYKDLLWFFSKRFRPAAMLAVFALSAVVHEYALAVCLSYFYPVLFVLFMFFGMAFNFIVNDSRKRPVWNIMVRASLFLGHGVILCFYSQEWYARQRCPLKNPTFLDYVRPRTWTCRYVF

[3] = biological target: T2, Sterol O-acyltransferase 1 (Rattus norvegicus) (UniProt O70536); test: In vitro inhibitory activity against acyl-coenzyme A:cholesterol acyltransferase 1 from rat hepatic microsomes at 10 uM
T2 sequence (whole entry): T1 sequence (O70536 whole entry)

[4] = test system: Cricetinae gen. sp.; test: In vivo activity to reduce liver cholesterol esters (hamster) at 1 mg/kg/day; assay type: functional, Cricetulus griseus
[5] = biological target: T1, Sterol O-acyltransferase 1; test: (§1) In vitro inhibitory activity against Acyl coenzyme A:cholesterol acyltransferase 1 from rat hepatic microsomes at 10 uM
[6] = test system: Cricetinae gen. sp.; test: In vivo activity to reduce liver cholesterol esters (hamster) at 5 mg/kg/day; assay type: functional, Cricetulus griseus
[7] = biological target: T2, Sterol O-acyltransferase 1 (Rattus norvegicus); test: as §1

Q: How did the Reduction [1] turn out when `O=C(N[C@@H]1c2c(O)cccc2CC[C@@H]1c1ccccc1)C(c1ccccc1)c1ccccc1` was run?
A: Its Reduction is 20%.

Q: How did the Reduction [1] turn out when `O=C(N[C@@H]1c2cc(O)ccc2CC[C@@H]1c1ccc(O)cc1)C(c1ccccc1)c1ccccc1` was run?
A: Its Reduction is 0%.

Q: Which Reduction [1] does the source give for `O=C(N[C@H]1c2ccccc2OC[C@@H]1c1ccc(O)cc1)C(c1ccccc1)c1ccccc1` here?
A: The Reduction was 0%.

Q: What does the source list for `O=C(N[C@@H]1c2cc(O)ccc2CC[C@@H]1c1ccccc1)C(c1ccccc1)c1ccccc1`?
A: Reduction [1]: 38%; IC50 [2]: 2.4 µM; inhibition [3]: 84%

Q: Which Reduction [1] does the source give for `O=C(N[C@@H]1CCCC[C@@H]1c1ccc(O)cc1)C(c1ccccc1)c1ccccc1` here?
A: The Reduction was 0%.

Q: And the IC50 [2]?
A: Its IC50 is 3 µM.

Q: What about the inhibition [3] of the same compound?
A: The inhibition was 80%.

Q: What does the source list for `COc1ccc([C@H]2CCCC[C@H]2NC(=O)C(c2ccccc2)c2ccccc2)cc1`?
A: Reduction [1]: 20%; IC50 [2]: 3 µM; inhibition [3]: 77%

Q: Which results are given for `O=C(N[C@H]1c2ccccc2CC[C@@H]1c1ccc(O)cc1)C(c1ccccc1)c1ccccc1`?
A: Reduction [1]: 58%; IC50 [2]: 0.7 µM; inhibition [3]: 93%

Q: Which results are given for `COc1ccc([C@H]2CCCC[C@@H]2NC(=O)C(c2ccccc2)c2ccccc2)cc1`?
A: Reduction [1]: 0%; IC50 [2]: 0.1 µM; inhibition [3]: 100%

Q: `COc1ccc([C@H]2CCc3ccccc3[C@@H]2NC(=O)C(c2ccccc2)c2ccccc2)cc1` was tested. Which Reduction [1] did it give?
A: Its Reduction is 0%.

Q: How did the Reduction [4] turn out when `O=C(NC1c2ccccc2CC1c1ccc(O)cc1)C(c1ccccc1)c1ccccc1` (racemic) was run?
A: The Reduction was 27%.

Q: What about the IC50 [5] of the same compound?
A: The IC50 was 0.1 µM.

Q: What about the Reduction [6] of the same compound?
A: The Reduction was 63%.

Q: How did the Reduction [1] turn out when `O=C(N[C@H]1c2ccccc2C[C@@H]1c1ccc(O)cc1)C(c1ccccc1)c1ccccc1` was run?
A: Its Reduction is 52%.

Q: What about the IC50 [2] of the same compound?
A: The IC50 was 0.23 µM.

Q: And the inhibition [3]?
A: Its inhibition is 99%.

Q: Which Reduction [1] does the source give for `O=C(N[C@@H]1c2ccccc2C[C@@H]1c1ccc(O)cc1)C(c1ccccc1)c1ccccc1` here?
A: The Reduction was 91%.

Q: What about the Reduction [4] of the same compound?
A: Its Reduction is 73%.

Q: What about the IC50 [5] of the same compound?
A: The IC50 was 0.04 µM.

Q: What about the IC50 [2] of the same compound?
A: The IC50 was 0.1 µM.

Q: What about the inhibition [3] of the same compound?
A: The inhibition was 99%.

Q: And the Reduction [6]?
A: Its Reduction is 88%.

Q: How did the Reduction [1] turn out when `COc1ccccc1[C@H]1CCc2ccccc2[C@H]1NC(=O)C(c1ccccc1)c1ccccc1` (stereo in doubt; trans) was run?
A: The Reduction was 0%.

Q: `O=C(NC(Cc1ccccc1)c1ccc(O)cc1)C(c1ccccc1)c1ccccc1` (stereo not given) was tested. Which Reduction [1] did it give?
A: Its Reduction is 69%.

Q: And the inhibition [3]?
A: The inhibition was 95%.

Q: Which results are given for `O=C(N[C@H]1c2ccc(O)cc2CC[C@@H]1c1ccccc1)C(c1ccccc1)c1ccccc1`?
A: Reduction [1]: 0%; IC50 [2]: 0.9 µM; inhibition [3]: 92%

Q: With `O=C(NC(Cc1ccc(O)cc1)c1cccc(O)c1)C(c1ccccc1)c1ccccc1` (stereo not given) as the compound, how does the Reduction [1] read?
A: Its Reduction is 0%.

Q: How did the Reduction [1] turn out when `O=C(N[C@@H]1c2ccc(O)cc2CC[C@@H]1c1ccccc1)C(c1ccccc1)c1ccccc1` was run?
A: Its Reduction is 45%.

Q: And the IC50 [2]?
A: Its IC50 is 0.9 µM.

Q: And the inhibition [3]?
A: Its inhibition is 87%.

Q: Which Reduction [1] does the source give for `COc1cccc([C@H]2CCc3ccccc3[C@@H]2NC(=O)C(c2ccccc2)c2ccccc2)c1` here?
A: The Reduction was 0%.

Q: How did the Reduction [1] turn out when `O=C(N[C@@H]1c2ccccc2CCC[C@@H]1c1ccc(O)cc1)C(c1ccccc1)c1ccccc1` was run?
A: Its Reduction is 0%.

Q: How did the inhibition [3] turn out when `O=C(NC(Cc1ccc(O)cc1)c1ccccc1)C(c1ccccc1)c1ccccc1` (stereo not given) was run?
A: The inhibition was 92%.

Q: With `O=C(N[C@@H]1c2cccc(O)c2CC[C@@H]1c1ccccc1)C(c1ccccc1)c1ccccc1` as the compound, how does the Reduction [1] read?
A: Its Reduction is 0%.

Q: With `COc1ccc([C@H]2CCc3ccc(OC)cc3[C@H]2NC(=O)C(c2ccccc2)c2ccccc2)cc1` as the compound, how does the Reduction [1] read?
A: The Reduction was 0%.

Q: Which results are given for `COc1ccc2c(c1)[C@H](NC(=O)C(c1ccccc1)c1ccccc1)[C@@H](c1ccc(O)cc1)CC2`?
A: Reduction [1]: 97%; IC50 [2]: 0.4 µM; inhibition [3]: 98%

Q: How did the Reduction [1] turn out when `O=C(NC(Cc1ccccc1)c1cccc(O)c1)C(c1ccccc1)c1ccccc1` (stereo not given) was run?
A: The Reduction was 19%.

Q: `O=C(N[C@@H]1c2ccccc2CC[C@@H]1c1ccncc1)C(c1ccccc1)c1ccccc1` was tested. Which Reduction [1] did it give?
A: The Reduction was 39%.

Q: With `O=C(N[C@H]1c2ccccc2CC[C@@H]1c1cccc(O)c1)C(c1ccccc1)c1ccccc1` as the compound, how does the Reduction [1] read?
A: Its Reduction is 0%.

Q: And the IC50 [2]?
A: The IC50 was 0.7 µM.

Q: And the inhibition [3]?
A: The inhibition was 98%.

Q: `O=C(N[C@@H]1c2ccccc2CC[C@@H]1c1ccc(O)cc1)C(c1ccccc1)c1ccccc1` was tested. Which Reduction [1] did it give?
A: The Reduction was 16%.

Q: What about the IC50 [2] of the same compound?
A: Its IC50 is 0.35 µM.

Q: What about the inhibition [3] of the same compound?
A: Its inhibition is 91%.

Q: Which Reduction [1] does the source give for `COc1ccc(C(Cc2ccccc2)NC(=O)C(c2ccccc2)c2ccccc2)cc1` (stereo not given) here?
A: The Reduction was 69%.

Q: What about the inhibition [3] of the same compound?
A: Its inhibition is 88%.

Q: How did the Reduction [1] turn out when `O=C(NC(Cc1ccc(O)cc1)c1ccc(O)cc1)C(c1ccccc1)c1ccccc1` (stereo not given) was run?
A: The Reduction was 40%.

Q: `COc1ccc([C@H]2CCc3ccccc3[C@H]2NC(=O)C(c2ccccc2)c2ccccc2)cc1` was tested. Which Reduction [1] did it give?
A: The Reduction was 0%.

Q: For `COc1ccc(CC(NC(=O)C(c2ccccc2)c2ccccc2)c2ccccc2)cc1` (stereo not given), which Reduction [1] is on record?
A: Its Reduction is 65%.

Q: What about the inhibition [3] of the same compound?
A: Its inhibition is 92%.

Q: For `O=C(N[C@H]1c2ccccc2C[C@H]1c1ccc(O)cc1)C(c1ccccc1)c1ccccc1`, which Reduction [4] is on record?
A: Its Reduction is 0%.

Q: And the IC50 [5]?
A: The IC50 was 13 µM.

Q: And the Reduction [6]?
A: The Reduction was 0%.

Q: What does the source list for `O=C(N[C@H]1c2cc(O)ccc2CC[C@@H]1c1ccccc1)C(c1ccccc1)c1ccccc1`?
A: Reduction [1]: 78%; IC50 [2]: 1.3 µM; inhibition [3]: 94%

Q: For `COc1cccc([C@H]2CCc3ccccc3[C@H]2NC(=O)C(c2ccccc2)c2ccccc2)c1`, which Reduction [1] is on record?
A: The Reduction was 0%.

Q: With `COc1ccc(CC(NC(=O)C(c2ccccc2)c2ccccc2)c2ccc(OC)cc2)cc1` (stereo not given) as the compound, how does the Reduction [1] read?
A: Its Reduction is 32%.

Q: What about the inhibition [3] of the same compound?
A: Its inhibition is 40%.

Q: With `O=C(N[C@H]1c2ccccc2CC[C@@H]1c1ccccc1O)C(c1ccccc1)c1ccccc1` as the compound, how does the Reduction [1] read?
A: The Reduction was 0%.

Q: Which Reduction [1] does the source give for `O=C(N[C@H]1CCCC[C@@H]1c1ccc(O)cc1)C(c1ccccc1)c1ccccc1` here?
A: The Reduction was 0%.

Q: And the IC50 [2]?
A: Its IC50 is 0.6 µM.

Q: And the inhibition [3]?
A: The inhibition was 94%.

Q: Which results are given for `O=C(N[C@@H]1c2ccccc2CC[C@@H]1c1cccc(O)c1)C(c1ccccc1)c1ccccc1`?
A: Reduction [1]: 0%; IC50 [2]: 1.8 µM; inhibition [3]: 77%

Q: With `O=C(N[C@H]1c2cccc(O)c2CC[C@@H]1c1ccccc1)C(c1ccccc1)c1ccccc1` as the compound, how does the Reduction [1] read?
A: Its Reduction is 0%.

Q: `O=C(N[C@@H]1c2ccccc2OC[C@@H]1c1ccc(O)cc1)C(c1ccccc1)c1ccccc1` was tested. Which Reduction [1] did it give?
A: The Reduction was 0%.

Q: Which inhibition [7] does the source give for `O=C(NC1CCCc2ccccc21)C(c1ccccc1)c1ccccc1` (stereo not given) here?
A: The inhibition was 37%.

Q: `O=C(N[C@H]1c2ccccc2CCC[C@@H]1c1ccc(O)cc1)C(c1ccccc1)c1ccccc1` was tested. Which Reduction [1] did it give?
A: The Reduction was 61%.

Q: How did the Reduction [1] turn out when `Nc1ccc([C@H]2CCc3ccccc3[C@H]2NC(=O)C(c2ccccc2)c2ccccc2)cc1` was run?
A: Its Reduction is 57%.

Q: With `COc1ccc2c(c1)C(NC(=O)C(c1ccccc1)c1ccccc1)CCC2` (stereo not given) as the compound, how does the Reduction [1] read?
A: Its Reduction is 0%.
